Laboratory results taken from PubChem BioAssay AID1159560 (GlaxoSmithKline (GSK), 2015).
Active and inactive are the calls of the source. The rule behind the calls is not given here.

System: Leishmania donovani growth inhibition
Experiment: Leishmania donovani growth inhibition (AID 1159560);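 note: parasites exposed to compound for 72 h before the viability read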

## CCC(c1ccc(F)cc1)n1cncc1-c1cnn(C)c1 (configuration not stated)
  IC50: > 50 µM (inactive)

## c1ccc(-c2nc(NC3CCCCC3)cc(C3CC3)n2)nc1
  IC50: 0.79 µM

## Cc1ccc2c(c1)SC(C(=O)Nc1n[nH]c(-c3ccccn3)n1)C2 (configuration not stated)
  IC50: 6.3 µM

## N#Cc1ccc(Br)cc1[N+](=O)[O-]
  IC50: 7.9 µM

## CN1C(=O)c2ccccc2Sc2ccc(NC(=O)NCc3ccco3)cc21
  IC50: > 50 µM (inactive)

## COc1ncc(-c2ccc3ncnc(N4CCOCC4)c3c2)cc1NS(C)(=O)=O
  IC50: 3.2 µM

## CCN(C)Cc1ccc(N2CCC(NS(=O)(=O)c3ccc4c(c3)CCO4)CC2)nc1
  IC50: > 50 µM (inactive)

## Cc1cc(C)n(-c2nc(NC(C)(C)C)nc(N3CCOCC3)n2)n1
  IC50: 6.3 µM

## COc1ccc(-c2cnc(NC(=O)c3cc(-c4ccccn4)n[nH]3)n2C)cc1
  IC50: 4 µM

## COc1ccc(C(=O)[C@H]2C[C@@H]2CN(Cc2ccccn2)Cc2ccccn2)cc1
  IC50: 7.9 µM

## CCN(CC)S(=O)(=O)c1ccc(C)c(NC(=O)c2cc(Cl)c3c(c2)OCO3)c1
  IC50: > 50 µM (inactive)

## COc1cc(OC)cc(C(NS(=O)(=O)c2ccc(Cl)c(C(F)(F)F)c2)c2nccn2C)c1 (configuration not stated)
  IC50: 10 µM

## CN(C)Cc1ccc(N2CCC(NS(=O)(=O)c3ccc(Cl)cc3)CC2)cc1
  IC50: 40 µM

## Nc1nc(-c2ccccc2)cc(-c2nc3ncccc3[nH]2)n1
  IC50: 4 µM

## Cc1ccc(NC(=O)c2ccc([N+](=O)[O-])s2)cc1S(=O)(=O)N1CCOCC1
  IC50: 2 µM

## O=C(Nc1nc2ccccc2[nH]1)c1ccc2nc[nH]c2c1
  IC50: 2.5 µM

## Oc1c(-c2n[nH]c(Cc3ccc(Cl)cc3)n2)ncc2cccnc12
  IC50: 0.25 µM

## O=C(NCCc1ccn(-c2ccccc2)n1)C1CCCCC1
  IC50: > 50 µM (inactive)

## O=C(NCC1CCCCC1)c1cc(=O)c2ccccc2o1
  IC50: 5 µM

## COc1cccc(NS(=O)(=O)c2ccc3[nH]cc(C(=O)NCCC(C)C)c(=O)c3c2)c1
  IC50: > 50 µM (inactive)

## Cc1ccc(-c2csc(NC(=O)C=Cc3ccc(S(=O)(=O)N4CCOCC4)cc3)n2)o1
  IC50: 6.3 µM

## O=C(NCCCn1cnc2ccccc21)c1ccc(NC(=O)c2ccco2)cc1
  IC50: 1.3 µM

## COc1ccc2nccc(NC(=O)C3(OC)CCN(CC(O)c4ccc5c(c4)OCCO5)CC3)c2n1 (configuration not stated)
  IC50: 10 µM

## Nc1nc(-c2ccccn2)nc(-n2nc(-c3cccc(C(F)(F)F)c3)cc2N)n1
  IC50: 10 µM

## O=C(C1CCCCC1)N1CCN(c2nnc(-c3ccccc3)c3ccccc23)CC1
  IC50: > 50 µM (inactive)

## Cn1c(CC(=O)NNC(=O)c2ccc3ccccc3n2)nc2ccccc21
  IC50: 6.3 µM

## CCOc1ccc(NC(=O)c2ccc(NC(=O)NC3CCCCC3)cc2)cc1
  IC50: > 50 µM (inactive)

## CN(C)S(=O)(=O)c1cccc(C(=O)Nc2nc(-c3ccccn3)cs2)c1
  IC50: 1.3 µM

## N#Cc1cc([N+](=O)[O-])ccc1NC1CCCCCC1
  IC50: > 50 µM (inactive)

## COc1cccc2sc(CN(C)C(=O)C3CNCCN3c3ccc(F)cc3)c(C)c12 (configuration not stated)
  IC50: 32 µM

## O=S(=O)(NCC(c1cccnc1)N1CCN(c2ccc(F)cc2)CC1)c1cccs1 (configuration not stated)
  IC50: > 50 µM (inactive)

## Cc1nc2c(-c3ncn[nH]3)cc(NC(=O)Cc3ccccc3)cn2c1C
  IC50: 0.79 µM

## CCC(=O)Nc1ccc(C(=O)Nc2ccccc2-c2ccccc2)cc1
  IC50: 10 µM

## Cc1ccc(NC(=O)C(C)n2nc([N+](=O)[O-])c(Br)c2C)cc1Cl (configuration not stated)
  IC50: > 50 µM (inactive)

## Clc1ccc(CN2CCN(C3=NCCN3)CC2)cc1Cl
  IC50: > 50 µM (inactive)

## COc1ccc(CN2C(=O)C(O)(CC(=O)c3ccncc3)c3cc(Br)ccc32)cc1OC (configuration not stated)
  IC50: 40 µM

## Cc1ccccc1OCC(=O)N1CCCN(c2cccnn2)CC1
  IC50: 13 µM

## Cc1cc2nc(N3CC[C@H]3C(N)=O)nc(Nc3cc(C4CC4)[nH]n3)c2s1
  IC50: 0.79 µM

## Cc1ccc2nc(N(Cc3cccnc3)C(=O)CCc3ccccc3)sc2c1
  IC50: 25 µM

## CC(C)Oc1cccc(N2CCC(C(=O)N3CCCN(C(C)C)CC3)CC2)c1
  IC50: > 50 µM (inactive)

## COc1ccc2ncc(=O)n(CCN3CC[C@H](NCc4ncc(Cl)c5[nH]ncc45)[C@H](O)C3)c2n1
  IC50: > 50 µM (inactive)

## COc1ccc([N+](=O)[O-])cc1NC(=O)c1cc(Cl)ccc1O
  IC50: 7.9 µM

## O=C(CCCn1cnc([N+](=O)[O-])n1)Nc1cccc(Cl)c1
  IC50: > 50 µM (inactive)

## COc1ccccc1-c1c(C)[nH]c2nc(N)nc(C)c12
  IC50: 13 µM

## Cc1c(C(C)NC(=O)Nc2cccc(Cl)c2)sc2ncnn12 (configuration not stated)
  IC50: 2 µM

## CCCCNc1nccc(-c2c(-c3ccc(F)cc3)nn3c(N4CCOCC4)cccc23)n1
  IC50: > 50 µM (inactive)

## CCCC(=O)N(Cc1ccccn1)c1nc2ccccc2s1
  IC50: 7.9 µM

## CN(C)Cc1cccc(Nc2nccc(-c3ccc(NCCN)c(C#N)c3)n2)c1
  IC50: 2.5 µM

## O=C(c1ccc(O)c(Cl)c1)N1CCN(c2cnccn2)CC1
  IC50: 0.32 µM

## CCS(=O)(=O)c1cccc(C(=O)Nc2nc(-c3ccccn3)cs2)c1
  IC50: 1.3 µM

## O=C(NCCc1cccnc1)c1ccc(-c2ccccc2F)o1
  IC50: 20 µM

## Nc1nc(-c2ccccn2)nc(N)c1Cc1c(F)cccc1Cl
  IC50: 2.5 µM

## Cn1nc([N+](=O)[O-])nc1Oc1ccc(C(=O)c2ccccc2)cc1
  IC50: > 50 µM (inactive)

## COc1ccc(CNc2nsc3ccccc23)cc1OC
  IC50: 3.2 µM

## CS(=O)(=O)c1ccc(Nc2nccc(Nc3n[nH]c4ccc(F)cc34)n2)c(F)c1
  IC50: 13 µM

## COc1cc(-c2noc(CC#N)n2)ccc1OC(F)F
  IC50: > 50 µM (inactive)

## CCCN1CCN(Cc2ccc(S(=O)(=O)Nc3cccc(C)c3)cc2)CC1
  IC50: 25 µM

## O=c1[nH]ccc2ccc(-c3ccncc3)cc12
  IC50: > 50 µM (inactive)

## Cc1c(C#N)c([N+](=O)[O-])nn1Cc1cccc(Cl)c1Cl
  IC50: > 50 µM (inactive)

## CCCc1cc(N)nc(-c2cc(CCC)cc(N)n2)c1
  IC50: 20 µM

## Nc1ncnc2c1ncn2[C@@H]1O[C@H](CO)C[C@H]1O
  IC50: > 50 µM (inactive)

## CCN(CC)S(=O)(=O)c1ccc(OC)c(NC(=O)c2ccc([N+](=O)[O-])s2)c1
  IC50: > 50 µM (inactive)

## CC(=O)NCCNc1cc(-c2ccnc(Nc3cccc(Cl)c3)n2)ccn1
  IC50: 0.32 µM

## COc1ccc(OC)c2c(=O)c(Cc3ccccc3)c(C)[nH]c12
  IC50: 0.4 µM

## CC(=O)Nc1ccc(-c2csc(NC(=O)c3ccc([N+](=O)[O-])s3)n2)cc1
  IC50: 0.4 µM

## O=C(c1ccc(Cl)cc1)c1ccc(OC(=O)N2CCOCC2)cc1
  IC50: 6.3 µM

## NC(=O)c1cc(F)ccc1Nc1nc(NC2CCC(O)CC2)ncc1Cl (configuration not stated)
  IC50: 3.2 µM

## O=C(NCc1ccc(-n2cccc2)cc1)c1nc(Cn2ccc([N+](=O)[O-])n2)no1
  IC50: > 50 µM (inactive)

## O=C1COC(c2ccccc2)(c2ccccc2)CN1C1CCN(Cc2ccc(-n3ccnc3)cc2)CC1
  IC50: 32 µM

## N#Cc1cc(N2CCCC2=O)ccc1Sc1ccccc1CO
  IC50: > 50 µM (inactive)

## Cc1ccc(S(=O)(=O)Cn2nnnc2C(c2cccnc2)N2CCN(c3ccccc3)CC2)cc1 (configuration not stated)
  IC50: 1 µM

## O=C(c1cccc(Cl)c1Cl)N1CCn2c1nc(-c1ccncc1)cc2=O
  IC50: 50 µM

## O=C(NCCc1ccccc1Cl)c1cccn1-c1cccnc1
  IC50: 6.3 µM

## CN(C(=O)Nc1ccc2c(c1)CCN(C1CCC1)CC2)c1ccc(C#N)cc1
  IC50: 40 µM

## COCc1cc(Nc2ccccc2)nc(-c2ccccn2)n1
  IC50: 7.9 µM

## O=c1ccn(-c2ccc([N+](=O)[O-])cc2Cl)c2ccc(F)cc12
  IC50: > 50 µM (inactive)

## O=C(Cc1ccccc1)Nc1ccccc1C(=O)Nc1nccs1
  IC50: > 50 µM (inactive)

## Cn1nc(C(=O)N2CCc3ccccc32)c2c1CCS(=O)(=O)C2
  IC50: 4 µM

## CCN(CC)c1nc(N(C)C)nc2c1CN(Cc1ccccc1)CC2
  IC50: 7.9 µM

## Cc1nc(N2CCC(C(=O)N3CCC(O)(c4cccnc4)CC3)CC2)nc2ccc(C(C)C)cc12
  IC50: > 50 µM (inactive)

## Cc1[nH]c2ccccc2c(=O)c1Cc1c(C)[nH]c2ccccc2c1=O
  IC50: 20 µM

## CCCN(Cc1ccc(OC)c(OC)c1)Cc1cc(=O)c2c(C)cc(C)cc2[nH]1
  IC50: 20 µM

## CN(C)c1ncc(-c2cncn2CCOc2ccc(Cl)cc2)cn1
  IC50: > 50 µM (inactive)

## O=C(Nc1n[nH]c(-c2ccccn2)n1)C1CC1c1ccccc1 (configuration not stated)
  IC50: 13 µM

## Cc1ccnc(NS(=O)(=O)c2ccc(NC(=O)c3ccc([N+](=O)[O-])s3)cc2)n1
  IC50: 4 µM

## O=C(Nc1nccs1)c1ccccc1Cn1cc([N+](=O)[O-])cn1
  IC50: > 50 µM (inactive)

## Clc1ccc(Sc2cnccc2N2CCOCC2)cc1
  IC50: 7.9 µM

## Cc1cc2ncn(-c3ccc([N+](=O)[O-])cc3C#N)c2cc1C
  IC50: > 50 µM (inactive)

## Cc1ccc(C)c(OC2CCN(C(=O)C(C)n3ccnc3)CC2)c1 (configuration not stated)
  IC50: 2.5 µM

## O=C(Nc1ccc(Br)c(Cl)c1)Nc1ccc2c(c1)OCO2
  IC50: > 50 µM (inactive)

## CCn1c(-c2nonc2N)nc2c([C@@H](C)O)ncc(O[C@H](CN)c3ccccc3)c21
  IC50: 20 µM

## CCN(Cc1cccs1)C(=O)CSc1nnc(-c2ccc3c(c2)OCO3)o1
  IC50: 3.2 µM

## NCc1ccc2c(Cl)cc(Cl)c(O)c2n1
  IC50: 6.3 µM

## O=C(NCc1ccc(Cl)cc1)C1CN(C(=O)c2ccc(F)cc2)CCS1 (configuration not stated)
  IC50: > 50 µM (inactive)

## COc1ccc2ncc(Cl)c(CCN3CC[C@H](NCc4cc5c(cn4)OCS5)[C@@H](O)C3)c2n1
  IC50: 2 µM

## COc1ccc(NS(=O)(=O)c2cc(NC(=O)Cc3ccc(C)cc3)ccc2N2CCOCC2)cc1
  IC50: 40 µM

## COc1ccc(-c2nc3ccncc3c(=O)n2CCOc2ccccc2)cc1
  IC50: 40 µM

## c1ccc(-c2nc(NC3CCCC3)c3ccccc3n2)nc1
  IC50: 4 µM

## COc1cc(-c2nc(N3CCOCC3)sc2-c2ccnc(NC3CCOCC3)n2)ccc1Cl
  IC50: > 50 µM (inactive)

## O=C(NCCc1csc(-c2ccc(F)cc2)n1)c1ccco1
  IC50: > 50 µM (inactive)

## Cc1ccccc1NS(=O)(=O)c1ccc2[nH]cc(C(=O)NC3CCCCC3)c(=O)c2c1
  IC50: > 50 µM (inactive)

## COc1ccccc1-n1c(SCC(=O)Nc2ccc3c(c2)OCO3)nc2c(c1=O)SCC2
  IC50: 10 µM

## CC(C)(C)Nc1nc(-c2ccccn2)nc2ccccc12
  IC50: 6.3 µM

## Cn1ccnc1-c1nc(NCc2ccccc2Cl)cc(C2CC2)n1
  IC50: 1.6 µM

## Cc1nc(C(=O)Nc2ccc3c(c2)OCO3)nn1-c1ccc(Cl)cc1
  IC50: 2.5 µM

## O=[N+]([O-])c1ccc(-c2nnn(-c3cccnc3)n2)o1
  IC50: 16 µM

## NC(N)=Nc1nc(-c2ccc(NC(N)=NCCN3CCCC3)cc2)cs1
  IC50: > 50 µM (inactive)
